Laboratory results taken from ChEMBL document CHEMBL1201862, “PubChem BioAssay data set” (2004).
Active and inactive are the calls of the source.

Tests used:
Streptococcus = experiment: GAS UMAA2166 growth inhibition – luminescence, BacTiterGlo, counter-screen for streptokinase expression inhibitor project, dose response (AID 1915); format: functional, organism-based;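 also: potency for reduction of bacterial viability or growth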
Streptokinase A = molecular target: T1, Streptokinase A (Streptococcus pyogenes serotype M1, UniProt P10520); experiment: viability-normalized secreted streptokinase activity reduction – plasminogen activation absorbance, OD405, dose response (AID 1914); format: functional, Streptococcus pyogenes M1 GAS;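 also: secreted streptokinase activity via plasminogen activation per viability signal from cell pellet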
T1 sequence (P10520 whole entry): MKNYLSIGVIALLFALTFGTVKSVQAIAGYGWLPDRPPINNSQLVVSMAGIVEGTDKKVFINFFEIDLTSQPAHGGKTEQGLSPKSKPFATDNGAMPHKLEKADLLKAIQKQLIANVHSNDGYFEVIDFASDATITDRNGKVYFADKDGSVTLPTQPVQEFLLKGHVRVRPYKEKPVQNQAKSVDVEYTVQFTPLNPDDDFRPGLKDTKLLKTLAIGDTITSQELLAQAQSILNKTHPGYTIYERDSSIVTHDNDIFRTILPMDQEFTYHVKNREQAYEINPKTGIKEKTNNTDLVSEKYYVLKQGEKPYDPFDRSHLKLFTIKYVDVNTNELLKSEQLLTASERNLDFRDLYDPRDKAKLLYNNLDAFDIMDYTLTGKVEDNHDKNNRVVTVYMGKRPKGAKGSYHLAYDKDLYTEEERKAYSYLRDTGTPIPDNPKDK

[1] = test system: Streptococcus sp. 'group A'; experiment: Streptococcus pyogenes SK(-)GAS viability under kanamycin – luminescence, BacTiterGlo, confirmation, counter-screen for streptokinase expression inhibitor project, dose response (AID 1900); format: functional, organism-based
[2] = NIH3T3 cell viability loss – ATP luminescence, mouse fibroblasts, counter-screen, dose response (AID 2010); format: functional, cell-based;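 also: cells exposed to compound for about 90 hours before reading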
[3] = Luminescence Cell-Based Dose Confirmation HTS to Identify Activators of 5'UTR Stem-Loop Driven Alpha-Synuclein mRNA Translation in H4 Neuroglioblastoma Cells. [Related pubchem assays: 1829 (Project Summary), 1814 (Primary HTS)]; format: functional
H4 = experiment: Luminescence Cell-Based Dose Response HTS to Identify Activators of 5'UTR Stem-Loop Driven Prion Protein mRNA Translation in H4 Neuroglioblastoma Cells. [Related pubchem assays: 1829 (Project Summary), 1814 (Primary HTS)]; format: functional; conditions: Homo sapiens
[4] = Luminescence Cell-Based Dose Response HTS to Identify Activators of Luciferase Translation or Activity in H4 […] Cells. [Related pubchem assays: 1829 (Project Summary), 1814 (Primary HTS)]; format: functional
[5] = Trypanosoma cruzi growth suppression in host cells – NIH3T3 host cells, beta-gal luminescence, confirmation (AID 2044); format: functional, cell-based;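 also: intracellular parasites grown in NIH/3T3 mouse fibroblasts as host cells; luminescent beta-galactosidase reporter signal from transgenic T. cruzi replicating inside host cells; inhibitors lower the luminescence signal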
[6] = molecular target: T2, Heat shock factor protein 1 (Mus musculus, UniProt P38532); experiment: decrease of HSF1-responsive luciferase luminescence – cell-based, NIH3T3, dose retest, confirmation (AID 2382); format: functional;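 also: NIH3T3 fibroblasts with HSF1-driven luciferase reporter stressed by proteasome inhibitor MG132; luminescence from HSF1-driven luciferase expression after 8 hours of MG132 stress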
T2 sequence (P38532 whole entry): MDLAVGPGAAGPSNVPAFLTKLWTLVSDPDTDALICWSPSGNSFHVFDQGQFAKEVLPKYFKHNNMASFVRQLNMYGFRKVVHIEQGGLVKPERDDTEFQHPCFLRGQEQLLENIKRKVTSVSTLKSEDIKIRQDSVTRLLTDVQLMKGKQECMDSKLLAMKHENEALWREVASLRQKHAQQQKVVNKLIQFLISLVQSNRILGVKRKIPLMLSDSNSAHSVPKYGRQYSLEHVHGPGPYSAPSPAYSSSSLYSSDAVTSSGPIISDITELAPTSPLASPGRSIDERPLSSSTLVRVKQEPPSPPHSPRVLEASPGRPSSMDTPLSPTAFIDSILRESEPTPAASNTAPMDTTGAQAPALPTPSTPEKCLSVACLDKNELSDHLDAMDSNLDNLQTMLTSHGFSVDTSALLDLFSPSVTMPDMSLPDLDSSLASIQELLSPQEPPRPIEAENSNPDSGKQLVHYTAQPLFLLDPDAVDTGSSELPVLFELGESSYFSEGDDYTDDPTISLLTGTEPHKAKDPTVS

[7] = molecular target: T3, Rac GTPase-activating protein 1 (Homo sapiens, UniProt Q9H0H5); experiment: blockers of MgcRacGAP-driven Rac1 GTP hydrolysis – biochemical, ADP Hunter fluorescence, primary and confirmatory, confirmation (AID 624330); format: functional
T3 sequence (Q9H0H5 whole entry): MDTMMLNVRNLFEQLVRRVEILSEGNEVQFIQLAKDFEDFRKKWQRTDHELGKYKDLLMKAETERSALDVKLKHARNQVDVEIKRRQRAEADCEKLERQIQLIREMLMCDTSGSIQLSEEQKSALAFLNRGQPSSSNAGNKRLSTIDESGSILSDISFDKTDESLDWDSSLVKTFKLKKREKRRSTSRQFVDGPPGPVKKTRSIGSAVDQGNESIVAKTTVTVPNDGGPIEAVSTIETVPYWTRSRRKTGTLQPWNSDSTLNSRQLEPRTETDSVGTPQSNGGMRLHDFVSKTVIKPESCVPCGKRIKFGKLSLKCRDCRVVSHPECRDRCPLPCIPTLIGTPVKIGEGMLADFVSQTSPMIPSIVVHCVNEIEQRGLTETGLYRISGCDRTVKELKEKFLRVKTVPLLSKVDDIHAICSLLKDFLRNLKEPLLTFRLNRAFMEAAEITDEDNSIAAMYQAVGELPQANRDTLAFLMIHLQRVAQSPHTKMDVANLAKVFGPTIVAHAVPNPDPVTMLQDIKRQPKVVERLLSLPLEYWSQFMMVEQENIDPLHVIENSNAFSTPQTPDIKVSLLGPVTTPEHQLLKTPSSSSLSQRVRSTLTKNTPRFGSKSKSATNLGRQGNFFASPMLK

[8] = molecular target: T4, Corticotropin-releasing factor receptor 2/Corticotropin-releasing factor-binding protein (Homo sapiens, UniProt P24387+Q13324); experiment: activators of CRF receptor 2 with binding protein – uHTS hits, confirmation (AID 602473); format: functional; conditions: read-out: EC50_Mean
T4 sequence (Q13324 whole entry): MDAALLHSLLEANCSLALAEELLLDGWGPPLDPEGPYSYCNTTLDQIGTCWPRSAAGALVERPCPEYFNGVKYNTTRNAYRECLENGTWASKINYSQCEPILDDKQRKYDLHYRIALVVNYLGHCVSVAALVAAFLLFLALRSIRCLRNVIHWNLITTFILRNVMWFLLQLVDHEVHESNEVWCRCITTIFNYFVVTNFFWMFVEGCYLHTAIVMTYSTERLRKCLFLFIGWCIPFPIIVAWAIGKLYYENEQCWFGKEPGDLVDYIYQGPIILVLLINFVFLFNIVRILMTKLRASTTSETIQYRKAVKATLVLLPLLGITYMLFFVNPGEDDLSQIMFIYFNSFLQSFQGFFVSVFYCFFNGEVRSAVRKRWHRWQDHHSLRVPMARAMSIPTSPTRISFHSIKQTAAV
T4 sequence (P24387 whole entry): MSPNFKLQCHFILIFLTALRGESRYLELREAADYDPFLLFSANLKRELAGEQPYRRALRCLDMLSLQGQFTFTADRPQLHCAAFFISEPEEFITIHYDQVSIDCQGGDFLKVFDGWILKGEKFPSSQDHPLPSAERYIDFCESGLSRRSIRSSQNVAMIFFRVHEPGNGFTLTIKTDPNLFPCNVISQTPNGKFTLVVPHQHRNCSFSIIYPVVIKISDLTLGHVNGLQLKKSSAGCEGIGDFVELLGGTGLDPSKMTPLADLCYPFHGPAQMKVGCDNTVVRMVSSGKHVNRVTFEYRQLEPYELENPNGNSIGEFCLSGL

[9] = molecular target: T4, Corticotropin-releasing factor receptor 2/Corticotropin-releasing factor-binding protein; experiment: Dose Response confirmation of uHTS hits for small molecule antagonists of the CRF-binding protein and CRF-R2 receptor complex.; format: functional; conditions: read-out: IC50_Mean
[10] = Luminescence Cell-Based Dose Retest to Confirm Inhibitors of Cancer Stem Cells. [Related pubchem assays (depositor defined):AID2717, AID2721]; format: functional; conditions: Homo sapiens
Cytochrome P450 2C19 = Cytochrome P450 2C19 (Homo sapiens, UniProt P33261); experiment: Cytochrome panel assay with activity outcomes. Panel member name: p450-cyp2c19 Compounds with AC50 equal or less than 10 uM are considered active; format: functional; conditions: read-out: AC50
Sequence of Cytochrome P450 2C19 (P33261 whole entry): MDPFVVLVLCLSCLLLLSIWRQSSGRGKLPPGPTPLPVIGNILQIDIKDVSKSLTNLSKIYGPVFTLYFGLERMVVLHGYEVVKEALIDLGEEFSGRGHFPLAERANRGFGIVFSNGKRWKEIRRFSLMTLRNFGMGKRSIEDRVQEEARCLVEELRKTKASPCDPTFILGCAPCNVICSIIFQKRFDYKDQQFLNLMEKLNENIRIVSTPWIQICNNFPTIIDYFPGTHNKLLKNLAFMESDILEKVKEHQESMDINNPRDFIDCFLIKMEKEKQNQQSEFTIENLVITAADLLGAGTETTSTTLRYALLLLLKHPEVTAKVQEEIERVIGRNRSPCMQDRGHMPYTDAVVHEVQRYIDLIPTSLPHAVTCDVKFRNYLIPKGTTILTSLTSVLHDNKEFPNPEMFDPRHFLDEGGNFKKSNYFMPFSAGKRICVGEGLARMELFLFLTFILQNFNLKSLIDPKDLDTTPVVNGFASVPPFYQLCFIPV

Cytochrome P450 3A4 = Cytochrome P450 3A4 (Homo sapiens, UniProt P08684);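 also: CYP3A4 tested as one member of a cytochrome P450 panel screen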
Sequence of Cytochrome P450 3A4 (P08684 whole entry): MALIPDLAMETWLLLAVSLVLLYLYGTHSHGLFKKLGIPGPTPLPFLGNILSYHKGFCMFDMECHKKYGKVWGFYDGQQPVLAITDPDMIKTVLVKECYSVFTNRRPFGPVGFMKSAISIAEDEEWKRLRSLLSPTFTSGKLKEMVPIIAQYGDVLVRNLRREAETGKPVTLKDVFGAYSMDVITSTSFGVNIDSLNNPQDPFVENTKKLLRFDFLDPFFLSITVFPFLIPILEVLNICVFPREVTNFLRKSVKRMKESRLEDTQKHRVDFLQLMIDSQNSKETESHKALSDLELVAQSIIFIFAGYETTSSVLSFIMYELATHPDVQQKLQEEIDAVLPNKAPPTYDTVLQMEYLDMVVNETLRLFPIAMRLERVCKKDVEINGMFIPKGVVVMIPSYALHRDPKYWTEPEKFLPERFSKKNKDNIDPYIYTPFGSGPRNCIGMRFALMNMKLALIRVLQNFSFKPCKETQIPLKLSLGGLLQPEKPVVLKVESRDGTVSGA

| SMILES | EC50 [3] | EC50 (H4) | EC50 [4] | EC50 [6] | other results |
| --- | --- | --- | --- | --- | --- |
| CC(C)C[C@H](NC(=O)c1[nH]cnc1C(=O)N[C@@H](C)C(=O)OC(C)(C)C)C(=O)OCc1ccccc1 |  |  |  |  | EC50 (Streptococcus): 40.9 µM (active); EC50 (Streptokinase A): > 150 µM (not active); EC50 [1]: 8.12 µM (active) |
| c1ccc(CN2CCC(Nc3nc(-c4cccnc4)nc4ccccc34)CC2)cc1 | 13 µM (active) | 104 µM (active) | > 120 µM (not active) |  | EC50 [2]: 8.99 µM (active); EC50 [5]: 1.34 µM (active) |
| O=C(c1ccccc1)c1ccc(OCC(O)CN2CCCC2)cc1 (centres undefined) |  |  |  | > 195 µM (not active) |  |
| O=C(CNC(=O)c1ccco1)Nc1ccc2c(c1)OCCO2 |  |  |  | 0.274 µM (active) |  |
| O=c1c2ccccc2nnn1-c1ccc(Br)cc1 | 0.157 µM (active) | 19 µM (active) | 0.1 µM (active) |  |  |
| O=C(Nc1ccc(F)c(Cl)c1)Nc1csc2ccccc12 |  |  |  |  | EC50 (Streptococcus): 5.69 µM (active); EC50 (Streptokinase A): > 50 µM (not active); EC50 [1]: 6.52 µM (active) |
| CN(C)c1ccc(/C=C2/C(=N\O)C3CCN2CC3)cc1 | 26 µM (active) | 28.8 µM (inconclusive) | 6.23 µM (active) |  | IC50 [7]: 75.5 µM (active) |
| COc1ccc(C2=NN(C(C#N)c3ccc(OC)cc3)C(c3ccccc3)C2)cc1 (centres undefined) | 5.24 µM (active) | > 120 µM (not active) | 8.15 µM (active) |  |  |
| CC(Sc1nnc(NCc2ccccc2)s1)C(=O)Nc1ccc2c(c1)C(=O)c1ccccc1C2=O (centres undefined) | 14.1 µM (active) | 49.2 µM (active) | 9.18 µM (active) |  |  |
| Cc1nc2ccc(NC(=O)c3cccc(S(=O)(=O)N4CCOCC4)c3)cc2s1 |  |  |  |  | EC50 [8]: > 53 µM (inactive); IC50 [9]: > 47.1 µM (inactive) |
| O=[N+]([O-])c1ccc(NCCOc2ccccc2Cl)nc1 |  |  |  | > 195 µM (not active) |  |
| O=C1c2ccccc2NC(c2ccccc2Cl)N1N=C1CCCCCC1 (centres undefined) | 18.9 µM (active) | 0.493 µM (active) | 11.9 µM (active) |  |  |
| O=C(C1CCCN1S(=O)(=O)c1cccc2nsnc12)N1CCN(c2ccccc2)CC1 (centres undefined) | > 120 µM (not active) | > 120 µM (not active) | > 120 µM (not active) |  |  |
| Cc1cc2nnc(SCC(=O)NCc3ccco3)n2c2ccccc12 | > 120 µM (not active) | > 120 µM (not active) | 5.13 µM (active) |  | AC50 [10]: 2.9 µM (active) |
| C=CCn1/c(=N/C(=O)C2CC2)sc2cc(NC(C)=O)ccc21 |  |  |  | > 195 µM (not active) |  |
| Cc1ccc(NC(=O)NC2=N/C(=C(/C#N)C(=O)N3CCCC3)c3ccccc32)cc1 |  |  |  | > 195 µM (not active) |  |
| O=[N+]([O-])c1ccc(N2CCNCC2)cc1NCC1CCCO1 (centres undefined) |  |  |  | > 195 µM (not active) | AC50 (Cytochrome P450 2C19): 39.8 µM (inconclusive) |

| SMILES | EC50 [3] | EC50 (H4) | EC50 [4] | EC50 [6] | other results |
| --- | --- | --- | --- | --- | --- |
| CCOc1cc(/C=C2\SC(=S)N(Nc3ccccc3)C2=O)ccc1O | 8.87 µM (active) | 22.6 µM (active) | 9.91 µM (active) |  |  |
| CCOC(=O)C1CCN(c2ncnc3c2nnn3Cc2ccccc2Cl)CC1 |  |  |  |  | EC50 [8]: > 53 µM (inactive); IC50 [9]: > 47.1 µM (inactive) |
| COc1cc(C=O)ccc1OCCOCCOc1ccc(Cl)cc1Cl |  |  |  |  | EC50 [8]: > 53 µM (inactive); IC50 [9]: > 47.1 µM (inactive) |
| COc1ccc(NC(=O)CSc2nnc3ccc(-c4ccncc4)nn23)cc1OC |  |  |  | > 195 µM (not active) |  |
| Cc1cccn2c(=O)c(/C=N/c3ccccc3)c(NCc3ccco3)nc12 | > 120 µM (not active) | > 120 µM (not active) | > 120 µM (not active) |  |  |
| CCOC(=O)c1c(C)nc2c(C)cccn12 |  |  |  | > 195 µM (not active) |  |
| O=c1c2cccnc2n(-c2ccccc2)n1Cc1c(Cl)cccc1Cl |  |  |  | > 195 µM (not active) |  |
| COc1ccc(S(=O)(=O)N2CCOC2CNC(=O)C(=O)NCCc2ccccc2)cc1C (centres undefined) |  |  |  |  | EC50 [8]: > 53 µM (inactive); IC50 [9]: > 47.1 µM (inactive) |
| COc1ccc(-c2oc3ccccc3c2C(=O)Oc2ccccc2)cc1 |  |  |  | 152 µM (active) |  |
| Cc1cc(C(=O)N2CCN(c3cccc(Cl)c3)CC2)c(C)o1 | > 120 µM (not active) | > 120 µM (not active) | 20.8 µM (active) |  |  |
| CN1C(=O)C(O)(C2COC(C)(C)CC2=O)c2cc(Br)ccc21 (centres undefined) |  |  |  |  | EC50 [8]: > 53 µM (inactive); IC50 [9]: > 47.1 µM (inactive) |
| COc1ccc(C(CC(=O)Nc2ccc(F)cc2)c2ccccc2)cc1 (centres undefined) |  |  |  |  | EC50 [8]: > 53 µM (inactive); IC50 [9]: 24.3 µM (active) |
| CC(C)(C)c1ccc(C(=O)NCCN2CCOCC2)cc1 | 12.5 µM (active) | 18.3 µM (active) | 11.8 µM (active) |  |  |
| Cc1c(Cl)cccc1NC(=O)c1cccc(OC(F)F)c1 |  |  |  | > 195 µM (not active) |  |
| Cc1cc(C)cc(OCC(O)CN2CCN(C(=O)c3ccco3)CC2)c1 (centres undefined) |  |  |  | > 195 µM (not active) |  |
| CCOC(=O)c1cc(C#N)c(Oc2ccccc2OC)nc1-c1ccccc1 |  |  |  |  | AC50 (Cytochrome P450 3A4): 11.2 µM (inconclusive); EC50 [8]: > 53 µM (inactive); IC50 [9]: > 47.1 µM (inactive) |
